Legend:
Type in all cases: in vivo
[1] = tested on: yellow fever mosquito (Aedes aegypti); assay: whole plant or invertebrate; conditions: 48 h, larval mortality visually assessed after 2 days, read-out: mortality in comparison with untreated controls
Procedure: For evaluating control of yellow fever mosquito (Aedes aegypti) the test unit consisted of 96-well-microtiter plates containing 200 μl of tap water per well and 5-15 freshly hatched A. aegypti larvae.
The active compounds were formulated using a solution containing 75% (v/v) water and 25% (v/v) DMSO. Different concentrations of formulated compounds or mixtures were sprayed onto the insect diet at 2.5 μl, using a custom built micro atomizer, at two replications.
After application, microtiter plates were incubated at 28±1° C., 80±5% RH for 2 days. Larval mortality was then visually assessed.

[2] = tested on: Orchid thrips (Dichromothrips corbetti); assay: Action on orchid thrips (Dichromothrips corbetti), floral-immersion technique; conditions: adult thrips, mortality 72 hours after treatment, read-out: mortality in comparison with untreated controls
Procedure: Dichromothrips corbetti adults used for bioassay were obtained from a colony maintained continuously under laboratory conditions. For testing purposes, the test compound is diluted in a 1:1 mixture of acetone:water (vol:vol), plus Kinetic® HV at a rate of 0.01% v/v.
Thrips potency of each compound was evaluated by using a floral-immersion technique. All petals of individual, intact orchid flowers were dipped into treatment solution and allowed to dry in Petri dishes. Treated petals were placed into individual re-sealable plastic along with about 20 adult thrips. All test arenas were held under continuous light and a temperature of about 28° C. for duration of the assay. After 3 days, the numbers of live thrips were counted on each petal. The percent mortality was recorded 72 hours after treatment.

[3] = tested on: boll weevil (Anthonomus grandis); assay: Action on boll weevil (Anthonomus grandis), 96-well microtiter plate diet test; conditions: 120 h, egg and larval mortality after 5 days, read-out: mortality in comparison with untreated controls
Procedure: For evaluating control of boll weevil (Anthonomus grandis) the test unit consisted of 96-well-microtiter plates containing an insect diet and 5-10 A. grandis eggs.
The compounds were formulated using a solution containing 75% v/v water and 25% v/v DMSO. Different concentrations of formulated compounds were sprayed onto the insect diet at 5 μl, using a custom built micro atomizer, at two replications.
After application, microtiter plates were incubated at about 25±1° C. and about 75±5% relative humidity for 5 days. Egg and larval mortality was then visually assessed.

[4] = tested on: Silverleaf Whitefly (Bemisia argentifoli) (Adults); assay: Action on silverleaf whitefly (Bemisia argentifoli) adults, sprayed cotton plants; conditions: Bemisia argentifolii, 72 h, 3 days after treatment, read-out: mortality in comparison with untreated controls
Procedure: The active compounds were formulated by a Tecan liquid handler in 100% cyclohexanone as a 10,000 ppm solution supplied in tubes. The 10,000 ppm solution was serially diluted in 100% cyclohexanone to make interim solutions. These served as stock solutions for which final dilutions were made by the Tecan in 50% acetone:50% water (v/v) into 5 or 10 ml glass vials. A nonionic surfactant (Kinetic®) was included in the solution at a volume of 0.01% (v/v). The vials were then inserted into an automated electrostatic sprayer equipped with an atomizing nozzle for application to plants/insects.
Cotton plants at the cotyledon stage (one plant per pot) were sprayed by an automated electrostatic plant sprayer equipped with an atomizing spray nozzle. The plants were dried in the sprayer fume hood and then removed from the sprayer. Each pot was placed into a plastic cup and about 10 to 12 whitefly adults (approximately 3-5 days old) were introduced. The insects were collected using an aspirator and a nontoxic Tygon® tubing connected to a barrier pipette tip. The tip, containing the collected insects, was then gently inserted into the soil containing the treated plant, allowing insects to crawl out of the tip to reach the foliage for feeding. Cups were covered with a reusable screened lid. Test plants were maintained in a growth room at about […] and about 20-40% relative humidity for 3 days, avoiding direct exposure to fluorescent light (24 hour photoperiod) to prevent trapping of heat inside the cup. Mortality was assessed 3 days after treatment, compared to untreated control plants.

[5] = tested on: tobacco budworm (Heliothis virescens); assay: Action on tobacco budworm (Heliothis virescens), 96-well microtiter plate diet test; conditions: 120 h, egg and larval mortality after 5 days, read-out: mortality in comparison with untreated controls
Procedure: For evaluating control of tobacco budworm (Helliothis virescens) the test unit consisted of 96-well-microtiter plates containing an insect diet and 15-25 H. virescens eggs.
The compounds were formulated using a solution containing 75% v/v water and 25% v/v DMSO. Different concentrations of formulated compounds were sprayed onto the insect diet at 10 μl, using a custom built micro atomizer, at two replications.
After application, microtiter plates were incubated at about 28±1° C. and about 80±5% relative humidity for 5 days. Egg and larval mortality was then visually assessed.

[6] = tested on: Diamond Back Moth (Plutella xylostella); assay: Action on diamond back moth (Plutella xylostella), cabbage leaf dip; conditions: foliar, 3rd instar larvae on dipped cabbage leaves, 72 hours after treatment, read-out: mortality in comparison with untreated controls
Procedure: The active compound is dissolved at the desired concentration in a mixture of 1:1 (vol:vol) distilled water:acetone. Surfactant (Kinetic® HV) is added at a rate of 0.01% (vol/vol).The test solution is prepared at the day of use.
Leaves of cabbage were dipped in test solution and air-dried. Treated leaves were placed in petri dishes lined with moist filter paper and inoculated with ten 3rd instar larvae. Mortality was recorded 72 hours after treatment. Feeding damages were also recorded using a scale of 0-100%.

[7] = tested on: Southern Armyworm (Spodoptera eridania), 2nd Instar Larvae; assay: Action on southern armyworm (Spodoptera eridania), 2nd instar larvae, sprayed lima bean plants; conditions: 96 h, 2nd instar larvae on lima bean, 4 days after treatment, read-out: mortality in comparison with untreated controls
Procedure: The active compounds were formulated by a Tecan liquid handler in 100% cyclohexanone as a 10,000 ppm solution supplied in tubes. The 10,000 ppm solution was serially diluted in 100% cyclohexanone to make interim solutions. These served as stock solutions for which final dilutions were made by the Tecan in 50% acetone:50% water (v/v) into 10 or 20 ml glass vials. A nonionic surfactant (Kinetic®) was included in the solution at a volume of 0.01% (v/v). The vials were then inserted into an automated electrostatic sprayer equipped with an atomizing nozzle for application to plants/insects.
Lima bean plants (variety Sieva) were grown 2 plants to a pot and selected for treatment at the 1st true leaf stage. Test solutions were sprayed onto the foliage by an automated electrostatic plant sprayer equipped with an atomizing spray nozzle. The plants were dried in the sprayer fume hood and then removed from the sprayer. Each pot was placed into perforated plastic bags with a zip closure. About 10 to 11 armyworm larvae were placed into the bag and the bags zipped closed. Test plants were maintained in a growth room at about 250C and about 20-40% relative humidity for 4 days, avoiding direct exposure to fluorescent light (24 hour photoperiod) to prevent trapping of heat inside the bags. Mortality and reduced feeding were assessed 4 days after treatment, compared to untreated control plants.

CC(/C=N/N=C1\SCC(=O)N1c1ccccc1C(C)C)=C\c1ccc(N(C)c2ccc(OC(F)(F)F)cc2)nc1 [Compound C-12, (2Z)-3-(2-isopropylphenyl)-2-[(E)-[(E)-2-methyl-3-[6-[N-methyl-4-(trifluoromethoxy)anilino]-3-pyridyl]prop-2-enylidene]hydrazono]thiazolidin-4-one]
≥ 75%: mortality at 800 ppm [1] | mortality at 500 ppm [2] | mortality at 800 ppm [3] | mortality at 300 ppm [4] | mortality at 800 ppm [5] | mortality at 500 ppm [6] | mortality at 300 ppm [7]

CC(/C=N/N=C1\SCC(=O)N1c1ccccc1C(C)C)=C\c1cnc(N(C)c2ccc(OC(F)(F)F)cc2)c(N(C)C)c1 [Compound C-9, (2Z)-2-[(E)-[(E)-3-[5-(dimethylamino)-6-[N-methyl-4-(trifluoromethoxy)anilino]-3-pyridyl]-2-methyl-prop-2-enylidene]hydrazono]-3-(2-isopropylphenyl)thiazolidin-4-one]
≥ 75%: mortality at 800 ppm [1] | mortality at 500 ppm [2] | mortality at 800 ppm [3] | mortality at 800 ppm [5] | mortality at 500 ppm [6] | mortality at 300 ppm [7]

Cc1nc(N(C)c2ccc(OC(F)(F)F)cc2)ncc1CC(C)/C=N/NC(=S)Nc1ccccc1C(C)C (stereo not shown) [Compound C-22, 1-(2-isopropylphenyl)-3-[(E)-[2-methyl-3-[4-methyl-2-[N-methyl-4-(trifluoromethoxy)anilino]pyrimidin-5-yl]propylidene]amino]thiourea]
≥ 75%: mortality at 800 ppm [3] | mortality at 300 ppm [4] | mortality at 800 ppm [5]

CC(/C=N/NC(=S)Nc1ccccc1C(C)C)=C\c1cnc(N(C)c2ccc(OC(F)(F)F)cc2)nc1C [Compound C-16, 1-(2-isopropylphenyl)-3-[(E)-[(E)-2-methyl-3-[4-methyl-2-[N-methyl-4-(trifluoromethoxy)anilino]pyrimidin-5-yl]prop-2-enylidene]amino]thiourea]
≥ 75%: mortality at 800 ppm [1] | mortality at 500 ppm [2] | mortality at 800 ppm [3] | mortality at 300 ppm [4] | mortality at 800 ppm [5] | mortality at 500 ppm [6] | mortality at 300 ppm [7]

CC(/C=N/NC(=S)Nc1ccccc1C(C)C)=C\c1ccc(N(C)c2ccc(OC(F)(F)F)cc2)nn1 [Compound C-26, 1-(2-isopropylphenyl)-3-[(E)-[(E)-2-methyl-3-[6-[N-methyl-4-(trifluoromethoxy)anilino]pyridazin-3-yl]prop-2-enylidene]amino]thiourea]
≥ 75%: mortality at 500 ppm [2] | mortality at 800 ppm [3] | mortality at 300 ppm [4] | mortality at 800 ppm [5] | mortality at 500 ppm [6] | mortality at 300 ppm [7]

CC(/C=N/NC(=S)Nc1ccccc1C(C)C)=C\c1cnc(Nc2ccc(OC(F)(F)F)cc2)nc1 [Compound C-1, 1-(2-isopropylphenyl)-3-[(E)-[(E)-2-methyl-3-[2-[4-(trifluoromethoxy)anilino]pyrimidin-5-yl]prop-2-enylidene]amino]thiourea]
≥ 75%: mortality at 800 ppm [1] | mortality at 500 ppm [2] | mortality at 800 ppm [3] | mortality at 800 ppm [5] | mortality at 500 ppm [6] | mortality at 300 ppm [7]

CC(/C=N/N=C1\SCC(=O)N1c1ccccc1C(C)C)=C\c1ccc(N(C)c2ccc(OC(F)(F)F)cc2)nn1 [Compound C-27, (2Z)-3-(2-isopropylphenyl)-2-[(E)-[(E)-2-methyl-3-[6-[N-methyl-4-(trifluoromethoxy)anilino]pyridazin-3-yl]prop-2-enylidene]hydrazono]thiazolidin-4-one]
≥ 75%: mortality at 800 ppm [1] | mortality at 500 ppm [2] | mortality at 800 ppm [3] | mortality at 800 ppm [5] | mortality at 500 ppm [6] | mortality at 300 ppm [7]

CC(/C=N/NC(=S)Nc1ccccc1C(C)C)=C\c1cnc(N(C)c2ccc(OC(F)(F)F)cc2)c(N(C)C)c1 [Compound C-8, 1-[(E)-[(E)-3-[5-(dimethylamino)-6-[N-methyl-4-(trifluoromethoxy)anilino]-3-pyridyl]-2-methyl-prop-2-enylidene]amino]-3-(2-isopropylphenyl)thiourea]
≥ 75%: mortality at 800 ppm [3] | mortality at 300 ppm [4] | mortality at 800 ppm [5] | mortality at 500 ppm [6] | mortality at 300 ppm [7]

CC(/C=N/NC(=S)Nc1ccccc1C(C)C)=C\c1ccc(N(C)c2ccc(OC(F)(F)F)cc2)nc1 [Compound C-15, 1-(2-isopropylphenyl)-3-[(E)-[(E)-2-methyl-3-[6-[N-methyl-4-(trifluoromethoxy)anilino]-3-pyridyl]prop-2-enylidene]amino]thiourea]
≥ 75%: mortality at 500 ppm [2] | mortality at 800 ppm [3] | mortality at 300 ppm [4] | mortality at 800 ppm [5] | mortality at 500 ppm [6] | mortality at 300 ppm [7]
